The source of these data is patent US12679839B2, “Cyclin-dependent kinase 7 (CDK7) non-covalent inhibitors” (JANSSEN PHARMACEUTICA NV, priority 2020, dated 2026).

In assay [1] the target is T1, CDK7/Cyclin H/MAT-1 complex (Homo sapiens, UniProt P50613).
T1 construct: Human CDK7 (amino acids 1-346); His6 (N); TEV protease cleavage site (N); made in house; host or cells: baculovirus-SF9 insect cells
In words: Flint assay, end-point fluorescence (5 nM CDK7/Cyclin H/MAT-1 complex). In kind it is biochemical. Particulars: read-out: CDK7 (5 nM) pIC50 (converted). A digest of the protocol:
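Trimeric complex of His6-TEV-tagged human CDK7 (1-346), MAT1 (1-309) and cyclin H (1-323), co-expressed in Sf9 cells, at 5 nM final, with substrates and coupling reagents as in the absorbance assay; 24 h reaction. End-point NADH fluorescence decrease (ex 340/em 440 nm); % inhibition versus no-inhibitor and full-inhibition controls, IC50 from four-parameter Hill fit.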

For assay [2], the system named is RNA polymerase II Serine 5 phosphorylation (Rpb1 CTD), downstream substrate of CDK7. The experiment in a line: Imaging-based cellular RNA PolII Ser5 phosphorylation assay in A549 cells. The assay is classed as cell-based, human. Particulars: Homo sapiens, A549, 3 h, challenged with compound for 3 hours, read-out: pRNA polII Ser5 (A549) pIC50 (converted). The procedure, abridged:
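A549 cells seeded 20 h in DMEM with 1% FBS, then exposed to compound for 3 h at 37 °C; fixed, methanol-permeabilized and immunostained for phospho-Rpb1 CTD Ser5, read by automated imaging. Signal normalized to DMSO (high) and 10 μM LDC4297 (low) controls; IC50 from four-parameter fit of % control vs concentration.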

T1 sequence (P50613 whole entry, the tested form may be a part): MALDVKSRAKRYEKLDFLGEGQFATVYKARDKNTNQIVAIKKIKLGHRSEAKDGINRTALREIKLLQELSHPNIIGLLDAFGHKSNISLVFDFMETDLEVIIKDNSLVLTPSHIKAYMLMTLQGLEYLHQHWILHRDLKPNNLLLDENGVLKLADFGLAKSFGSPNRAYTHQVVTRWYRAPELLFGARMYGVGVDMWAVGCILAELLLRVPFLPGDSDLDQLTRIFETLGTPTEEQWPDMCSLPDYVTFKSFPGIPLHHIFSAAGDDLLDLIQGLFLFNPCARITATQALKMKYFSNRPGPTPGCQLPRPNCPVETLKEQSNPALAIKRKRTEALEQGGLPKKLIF
T1 sequence (P51946 whole entry partner, the tested form may be a part): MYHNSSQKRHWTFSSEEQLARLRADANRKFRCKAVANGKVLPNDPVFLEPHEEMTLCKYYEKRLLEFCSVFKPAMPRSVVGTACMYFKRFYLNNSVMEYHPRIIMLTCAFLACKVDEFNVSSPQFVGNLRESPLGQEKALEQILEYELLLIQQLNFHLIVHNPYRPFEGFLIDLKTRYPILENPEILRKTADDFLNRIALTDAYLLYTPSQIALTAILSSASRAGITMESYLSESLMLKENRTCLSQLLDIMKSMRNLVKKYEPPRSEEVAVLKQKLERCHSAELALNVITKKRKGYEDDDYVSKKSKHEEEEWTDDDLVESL
T1 sequence (P51948 whole entry partner, the tested form may be a part): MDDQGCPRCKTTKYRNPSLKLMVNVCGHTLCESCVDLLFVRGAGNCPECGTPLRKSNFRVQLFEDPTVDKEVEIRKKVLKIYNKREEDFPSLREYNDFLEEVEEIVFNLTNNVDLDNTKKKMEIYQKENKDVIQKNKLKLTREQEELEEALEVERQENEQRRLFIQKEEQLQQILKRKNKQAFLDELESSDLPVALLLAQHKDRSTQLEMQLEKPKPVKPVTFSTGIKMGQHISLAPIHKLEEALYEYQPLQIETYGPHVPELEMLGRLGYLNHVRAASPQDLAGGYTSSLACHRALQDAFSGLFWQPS

Regarding `CO[C@H]1CC[C@H](Nc2ncc3c(n2)CN(C(=O)[C@@H]2CCN(C)C[C@H]2c2ccnc(C)c2)[C@H](C)C3)CC1` (relative stereo) [Compound 105], the values for the IC50 in assay [1] and in assay [2] were 10 nM and 407 nM, respectively.
For `C[C@@H]1Cc2cnc(NC3CCOCC3)nc2CN1C(=O)[C@H]1CCN(C)C[C@@H]1c1cccc(F)c1` (relative stereo) [Compound 133], the IC50 in assay [1] is 8.13 nM; in assay [2] it was 97.7 nM.
In the case of `C[C@@H]1CN(C(=O)[C@H]2CCN(C)C[C@@H]2c2ccccc2)Cc2nc(NC3CCOCC3)ncc21` (relative stereo) [Compound 188], the IC50 in assay [1] was 2.82 nM; in assay [2], 105 nM.
As for `C[C@@H]1Cc2cnc(NCc3ccn(C)n3)nc2CN1C(=O)[C@H]1CCN(C)C[C@@H]1c1ccccc1C(F)F` (relative stereo) [Compound 139], the IC50 in assay [1] is 49 nM; in assay [2], 1260 nM.
Consider `C[C@@H]1Cc2cnc(NCc3ccccc3)nc2CN1C(=O)[C@@H]1CCN(C)C[C@H]1C(F)(F)F` (relative stereo) [Compound 141], for which the IC50 in assay [1] is 8.51 nM; in assay [2] it was greater than 10000 nM.
On to `C[C@@H]1Cc2cnc(NCc3ccn(C)n3)nc2CN1C(=O)[C@H]1CCN(C)C[C@@H]1C(F)(F)F` (relative stereo) [Compound 143], for which the results for the IC50 in assay [1] and in assay [2] were 8.91 nM and 2570 nM, respectively.
As for `Cc1cccc([C@H]2CN(C)CC[C@@H]2C(=O)N2Cc3nc(NC4CCOCC4)ncc3C[C@H]2C)c1` (relative stereo) [Compound 134], the IC50 was 3.16 nM in assay [1] and roughly 67.6 nM in assay [2].
For the molecule `C[C@@H]1Cc2cnc(NCc3ccn(C)n3)nc2CN1C(=O)[C@H]1CCN(C)C[C@@H]1c1cccc(C(F)(F)F)c1` (relative stereo) [Compound 129], the results for the IC50 in assay [1] and in assay [2] were 4.9 nM and roughly 41.7 nM, respectively.
As to `C[C@@H]1Cc2cnc(NC3CCOCC3)nc2CN1C(=O)[C@H]1CCN(C)C[C@@H]1c1ccc(Cl)cc1` (relative stereo) [Compound 132], the results for the IC50 in assay [1] and in assay [2] were 3.63 nM and roughly 81.3 nM, respectively.
The corresponding values for `Cc1cccc([C@@H]2CN(C)CC[C@H]2C(=O)N2Cc3nc(NCc4ccn(C)n4)ncc3C[C@H]2C)c1` (relative stereo) [Compound 136] are 15.8 nM and roughly 27.5 nM.
For `C[C@@H]1CN(C)CC[C@H]1C(=O)N1Cc2nc(NC3CCOCC3)ncc2C[C@H]1C` (relative stereo) [Compound 145], the IC50 is 100 nM in assay [1] and 2950 nM in assay [2].
For `C[C@H]1CN(C(=O)[C@H]2CCN(C)C[C@@H]2c2ccccc2)[C@@H](C)c2nc(NC3CCOCC3)ncc21` (relative stereo) [Compound 181], in that order: 105 nM and 2510 nM.
The corresponding values for `[2H]C([2H])([2H])N1CC[C@@H](C(=O)N2Cc3nc(NCc4ccn(C)n4)ncc3C[C@H]2C)[C@H](c2cccc(C)c2)C1` (single isomer, unassigned) [Compound 148] are less than 2.51 nM and roughly 26.9 nM.
The corresponding values for `[2H]C([2H])([2H])N1CC[C@H](C(=O)N2Cc3nc(NCc4ccccc4)ncc3C[C@H]2C)[C@@H](c2ccccc2)C1` (single isomer, unassigned) [Compound 154] are 2.51 nM and 129 nM.
For the molecule `Cc1cc([C@@H]2CN(C)CC[C@H]2C(=O)N2Cc3nc(NC4CCOCC4)ncc3C[C@H]2C)ccn1` (relative stereo) [Compound 102], the IC50 was 19.5 nM in assay [1] and 1700 nM in assay [2].
In the case of `CC1CN(C(=O)[C@H]2CCN(C)C[C@@H]2c2ccccc2)Cc2nc(Nc3cnn(C)c3)ncc21` (mixture of isomers) [Compound 194], the IC50 in assay [1] is 6.17 nM; in assay [2] it was 110 nM.
Regarding `C[C@@H]1Cc2cnc(N[C@H]3CCCNC3)nc2CN1C(=O)[C@H]1CCN(C)C[C@@H]1C(F)(F)F` (relative stereo) [Compound 144], the figures for the IC50 in assay [1] and in assay [2] were 10 nM and 759 nM, respectively.
In the case of `CN1CC[C@H](C(=O)N2Cc3nc(NC4CCOCC4)ncc3CC2(C)C)[C@@H](c2ccccc2)C1` (relative stereo) [Compound 189], the IC50 in assay [1] is 22.4 nM; in assay [2], 1020 nM.
Take `C[C@@H]1Cc2cnc(N[C@@H]3CCC(=O)N(C)C3)nc2CN1C(=O)[C@H]1CCN(C)C[C@@H]1c1ccccc1` (relative stereo) [Compound 6]: the IC50 in assay [1] is 3.8 nM; in assay [2] it was 832 nM.
For `C[C@@H]1Cc2cnc(N[C@H]3CCOC(C)(C)C3)nc2CN1C(=O)[C@H]1CCN(C)C[C@@H]1c1ccccc1` (relative stereo) [Compound 39], in that order: 5.01 nM and 398 nM.
Consider `C[C@@H]1Cc2cnc(NC3CCOCC3)nc2[C@H](C)N1C(=O)[C@H]1CCN(C)C[C@@H]1c1ccccc1` (single isomer, unassigned) [Compound 195b], for which the IC50 is 4.9 nM in assay [1] and 72.4 nM in assay [2].
For `C[C@@H]1Cc2cnc(NC3CCOCC3)nc2CN1C(=O)[C@H]1CCN(C)C[C@@H]1C` (relative stereo) [Compound 146], in that order: 17.4 nM and 692 nM.
